# Molecular target: T1, CCR4 receptor (Homo sapiens, UniProt P51679)
# T1 construct: beta-galactosidase enzyme-fragment tag; From own knowledge, PathHunter uses a ProLink/enzyme-donor fragment, usually at the receptor's C-terminus; expressed in transfected cells; host or cells: CHO-K1
# T1 sequence (P51679 1-360): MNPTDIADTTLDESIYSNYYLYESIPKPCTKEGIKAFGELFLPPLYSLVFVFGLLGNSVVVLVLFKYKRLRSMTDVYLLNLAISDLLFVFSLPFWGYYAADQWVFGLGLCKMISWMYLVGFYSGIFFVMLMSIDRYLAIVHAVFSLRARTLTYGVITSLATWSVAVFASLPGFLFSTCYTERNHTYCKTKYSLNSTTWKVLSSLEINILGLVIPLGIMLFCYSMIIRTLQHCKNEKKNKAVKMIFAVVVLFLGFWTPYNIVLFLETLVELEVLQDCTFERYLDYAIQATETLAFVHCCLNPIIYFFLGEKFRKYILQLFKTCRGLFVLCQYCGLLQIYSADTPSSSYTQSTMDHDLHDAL
# Assay: CCR4 antagonist activity in Beta-Arrestin Cellular Assay (PathHunter, CCL22 challenge)
# Type: cell-based
# Settings: CHO-K1 cells expressing the CCR4 receptor; CCL22 at EC80 (15 nM), 90 minutes; 30 min pre-incubation; read-out: Potency (CCR4 antagonist IC50 in the β-arrestin assay)
# Experimental: Example 39. Determination of CCR4 antagonist activity in Beta-Arrestin Cellular Assay
# CCR4 Antagonistic Activity was assessed in Beta-Arrestin Cellular Assay. Compounds were assessed in CHO-K1 cells expressing the CCR4 receptor modified to enable β-glactosidase detection of β-arrestin agonist activity stimulated by CCL22 in a chemiluminescence assay. Cells were seeded in a total volume of 20 μL into white walled, 384-well microplates and incubated at 37° C. prior to testing. Cells were pre-incubated with test compound for 30 min at 37° C. followed by agonist challenge with CCL22 at the EC80 concentration (15 nM) for 90 minutes. Assay signal was generated through a single addition of 12.5 or 15 μL ([…]) of PathHunter Detection reagent cocktail, followed by a one-hour incubation at room temperature. Microplates were read following signal generation with a PerkinElmer Envision™ instrument for chemiluminescent signal detection. Antagonist activity was analyzed using CBIS data analysis suite (ChemInnovation, CA). Antagonist activity was characterized as percentage inhibition calculated using the following formula:
# An IC50 of >500 nM is designated as Potency C, an IC50 of between 500 nM and 100 nM is designated as Potency B and an IC50 of <100 nM is designated as Potency A.
row,Structure (SMILES),IC50
1,"CC(CCN1CCC[C@H](C2CCN(c3cc(N[C@H](C)c4ccc(Cl)cc4Cl)n4ncnc4n3)CC2)C1)C(=O)O (mixture of isomers) [Example 16, 4-((R)-1′-(7-(((R)-1-(2,4-dichlorophenyl)ethyl)amino)-[1,2,4]triazolo[1,5-a]pyrimidin-5-yl)-[3,4′-bipiperidin]-1-yl)-2-methylbutanoic acid]",< 0.1 µM
2,"C[C@@H](Nc1cc(N2CCC([C@H]3CCCN(C)C3)CC2)nc2ncnn12)c1ccc(Cl)cc1Cl [Example 9, N-((R)-1-(2,4-dichlorophenyl)ethyl)-5-((R)-1-methyl-[3,4′-bipiperidin]-1′-yl)-[1,2,4]triazolo[1,5-a]pyrimidin-7-amine]",< 0.1 µM
3,"C[C@@H](Nc1cc(N2CCC([C@H]3CCCNC3)CC2)nc2ncnn12)c1ccc(Cl)cc1Cl [Example 1, 5-((R)-[3,4′-bipiperidin]-1′-yl)-N-((R)-1-(2,4-dichlorophenyl)ethyl)-[1,2,4]triazolo[1,5-a]pyrimidin-7-amine]",< 0.1 µM
4,"CC(=O)NCCN1CCC[C@H](C2CCN(c3cc(N[C@H](C)c4ccc(Cl)cc4Cl)n4ncnc4n3)CC2)C1 [Example 13, N-(2-((R)-1′-(7-(((R)-1-(2,4-dichlorophenyl)ethyl)amino)-[1,2,4]triazolo[1,5-a]pyrimidin-5-yl)-[3,4′-bipiperidin]-1-yl)ethyl)acetamide]",< 0.1 µM
5,"C[C@@H](Nc1cc(N2CCC([C@H]3CCCN(CCCO)C3)CC2)nc2ncnn12)c1ccc(Cl)cc1Cl [Example 22, 3-((R)-1′-(7-(((R)-1-(2,4-dichlorophenyl)ethyl)amino)-[1,2,4]triazolo[1,5-a]pyrimidin-5-yl)-[3,4′-bipiperidin]-1-yl)propan-1-ol]",< 0.1 µM
6,"C[C@@H](Nc1cc(N2CCC([C@H]3CCCN(C4CC(S(C)(=O)=O)C4)C3)CC2)nc2ncnn12)c1ccc(Cl)cc1Cl (mixture of isomers) [Example 21, N-((R)-1-(2,4-dichlorophenyl)ethyl)-5-((R)-1-(3-(methylsulfonyl)cyclobutyl)-[3,4′-bipiperidin]-1′-yl)-[1,2,4]triazolo[1,5-a]pyrimidin-7-amine]",< 0.1 µM
7,"C[C@@H](Nc1cc(N2CCC([C@H]3CCCN(C4CCCC4)C3)CC2)nc2ncnn12)c1ccc(Cl)cc1Cl [Example 10, 5-((R)-1-cyclopentyl-[3,4′-bipiperidin]-1′-yl)-N-((R)-1-(2,4-dichlorophenyl)ethyl)-[1,2,4]triazolo[1,5-a]pyrimidin-7-amine]",< 0.1 µM
8,"C[C@@H](Nc1cc(N2CCC([C@H]3CCCN(Cc4nn[nH]n4)C3)CC2)nc2ncnn12)c1ccc(Cl)cc1Cl [Example 2, 5-((R)-1-((2H-tetrazol-5-yl)methyl)-[3,4′-bipiperidin]-1′-yl)-N-((R)-1-(2,4-dichlorophenyl)ethyl)-[1,2,4]triazolo[1,5-a]pyrimidin-7-amine]",< 0.1 µM
9,"COCCN1CCC[C@H](C2CCN(c3cc(N[C@H](C)c4ccc(Cl)cc4Cl)n4ncnc4n3)CC2)C1 [Example 11, N-((R)-1-(2,4-dichlorophenyl)ethyl)-5-((R)-1-(2-methoxyethyl)-[3,4′-bipiperidin]-1′-yl)-[1,2,4]triazolo[1,5-a]pyrimidin-7-amine]",< 0.1 µM
10,"C[C@@H](Nc1cc(N2CCC([C@H]3CCCN(CC#N)C3)CC2)nc2ncnn12)c1ccc(Cl)cc1Cl [Example 3, 2-((R)-1′-(7-(((R)-1-(2,4-dichlorophenyl)ethyl)amino)-[1,2,4]triazolo[1,5-a]pyrimidin-5-yl)-[3,4′-bipiperidin]-1-yl)acetonitrile]",< 0.1 µM
11,"C[C@@H](Nc1cc(N2CCC([C@H]3CCCN(CC(F)(F)F)C3)CC2)nc2ncnn12)c1ccc(Cl)cc1Cl [Example 7, N-((R)-1-(2,4-dichlorophenyl)ethyl)-5-((R)-1-(2,2,2-trifluoroethyl)-[3,4′-bipiperidin]-1′-yl)-[1,2,4]triazolo[1,5-a]pyrimidin-7-amine]",> 0.5 µM
12,"C[C@@H](Nc1cc(N2CCC([C@H]3CCCN([C@H]4C[C@](C)(C(=O)O)C4)C3)CC2)nc2ncnn12)c1ccc(Cl)cc1Cl [Example 18, (1R,3r)-3-((R)-1′-(7-(((R)-1-(2,4-dichlorophenyl)ethyl)amino)-[1,2,4]triazolo[1,5-a]pyrimidin-5-yl)-[3,4′-bipiperidin]-1-yl)-1-methylcyclobutane-1-carboxylic acid]",0.1 to 0.5 µM
13,"C[C@@H](Nc1cc(N2CCC([C@H]3CCCN([C@H]4C[C@](C)(C(=O)O)C4)C3)CC2)nc2ccnn12)c1ccc(F)cc1Cl [Example 25, (1R,3r)-3-((R)-1′-(7-(((R)-1-(2-chloro-4-fluorophenyl)ethyl)amino)pyrazolo[1,5-a]pyrimidin-5-yl)-[3,4′-bipiperidin]-1-yl)-1-methylcyclobutane-1-carboxylic acid]",< 0.1 µM
14,"C[C@@H](Nc1cc(N2CCC(C3CCCN(CCO)C3)C2)nc2ncnn12)c1ccc(Cl)cc1Cl (single isomer, unassigned) [Example 23a]",< 0.1 µM
15,"C[C@@H](Nc1cc(N2CCC([C@H]3CCCN(Cc4ncc[nH]4)C3)CC2)nc2ncnn12)c1ccc(Cl)cc1Cl [Example 4, 5-((R)-1-((1H-imidazol-2-yl)methyl)-[3,4′-bipiperidin]-1′-yl)-N-((R)-1-(2,4-dichlorophenyl)ethyl)-[1,2,4]triazolo[1,5-a]pyrimidin-7-amine]",< 0.1 µM

# More lines, now with the values ahead:
row,IC50,Structure (SMILES)
1,< 0.1 µM,"C[C@@H](Nc1cc(N2CCC([C@H]3CCCN([C@H]4C[C@](C)(C(=O)O)C4)C3)CC2)nc2nccn12)c1ccc(Cl)cc1Cl [Example 36, (1R,3r)-3-((R)-1′-(5-(((R)-1-(2,4-dichlorophenyl)ethyl)amino)imidazo[1,2-a]pyrimidin-7-yl)-[3,4′-bipiperidin]-1-yl)-1-methylcyclobutane-1-carboxylic acid]"
2,< 0.1 µM,"C[C@@H](Nc1cc(N2CCC([C@H]3CCCN([C@H]4C[C@](C)(C(=O)O)C4)C3)CC2)nc2ccnn12)c1ccc(F)cc1F [Example 34, (1R,3r)-3-((R)-1′-(7-(((R)-1-(2,4-difluorophenyl)ethyl)amino)pyrazolo[1,5-a]pyrimidin-5-yl)-[3,4′-bipiperidin]-1-yl)-1-methylcyclobutane-1-carboxylic acid]"
3,< 0.1 µM,"Cc1ccc([C@@H](C)Nc2cc(N3CCC([C@H]4CCCN([C@H]5C[C@](C)(C(=O)O)C5)C4)CC3)nc3ncnn23)c(Cl)c1 [Example 30, (1R,3r)-3-((R)-1′-(7-(((R)-1-(2-chloro-4-methylphenyl)ethyl)amino)-[1,2,4]triazolo[1,5-a]pyrimidin-5-yl)-[3,4′-bipiperidin]-1-yl)-1-methylcyclobutane-1-carboxylic acid]"
4,< 0.1 µM,"Cc1cc(F)ccc1[C@@H](C)Nc1cc(N2CCC([C@H]3CCCN([C@H]4C[C@](C)(C(=O)O)C4)C3)CC2)nc2ccnn12 [Example 29, (1R,3r)-3-((R)-1′-(7-(((R)-1-(4-fluoro-2-methylphenyl)ethyl)amino)pyrazolo[1,5-a]pyrimidin-5-yl)-[3,4′-bipiperidin]-1-yl)-1-methylcyclobutane-1-carboxylic acid]"
5,< 0.1 µM,"Cc1cc(Cl)ccc1[C@@H](C)Nc1cc(N2CCC([C@H]3CCCN([C@H]4C[C@](C)(C(=O)O)C4)C3)CC2)nc2ccnn12 [Example 32, (1R,3r)-3-((R)-1′-(7-(((R)-1-(4-chloro-2-methylphenyl)ethyl)amino)pyrazolo[1,5-a]pyrimidin-5-yl)-[3,4′-bipiperidin]-1-yl)-1-methylcyclobutane-1-carboxylic acid]"
6,0.1 to 0.5 µM,"Cc1cc(Cl)ccc1[C@@H](C)Nc1cc(N2CCC([C@H]3CCCN([C@H]4C[C@](C)(C(=O)O)C4)C3)CC2)nc2ncnn12 [Example 33, (1R,3r)-3-((R)-1′-(7-(((R)-1-(4-chloro-2-methylphenyl)ethyl)amino)-[1,2,4]triazolo[1,5-a]pyrimidin-5-yl)-[3,4′-bipiperidin]-1-yl)-1-methylcyclobutane-1-carboxylic acid]"
7,< 0.1 µM,"C[C@@H](Nc1cc(N2CCC([C@H]3CCCN([C@H]4C[C@](C)(C(=O)O)C4)C3)CC2)nc2ccnn12)c1ccc(Cl)cc1F [Example 38, (1R,3r)-3-((R)-1′-(7-(((R)-1-(4-chloro-2-fluorophenyl)ethyl)amino)pyrazolo[1,5-a]pyrimidin-5-yl)-[3,4′-bipiperidin]-1-yl)-1-methylcyclobutane-1-carboxylic acid]"

# Source: patent US20250122208A1, “CHEMOKINE RECEPTOR MODULATORS AND USES THEREOF” (RAPT THERAPEUTICS, INC., priority 2023, published 2025)
